{"source": "patent US20170049822A1", "about": "“METHODS OF ENHANCING STEM CELL ENGRAFTMENT” (TEXAS HEART INSTITUTE, priority 2014, published 2017)", "key": {"[1]": {"test_system": "hMSCs in ischemic hindlimbs of NOD/SCID mice", "test": "In vivo bioluminescence imaging of hMSC retention with daily SEE drug treatment", "settings": "3 days, hMSCs preconditioned 100 nM 4 days", "method": "The ability of stem cells to engraft in ischemic tissues in the presence of SEE was investigated. More specifically, the ability of hMSCs to engraft in ischemic hindlimbs in the presence of different SEEs was investigated. The studies were conducted in as described in Example 5, unless otherwise specified. To investigate the signaling pathways involved in prostacyclin-induced cell retention after hindlimb ischemia, hMSCs were preconditioned with either prostacyclin receptor agonist Cicaprost (100 nM) or PPARβ/δ agonist GW501516 (100 nM) for 4 days in vitro. Cells were then injected into the gastrocnemius of ischemic hindlimbs of NOD/SCID mice. After cell injection, mice were either treated daily with Cicaprost (oral gavage, LD=0.3 mg/kg/day; HD=1 mg/kg/day) or GW501516 (intra peritoneal (IP), 5 mg/kg/day). LD=low dose and HD=high dose. In vivo BLI was performed on cell-drug treated mice."}, "[2]": {"settings": "in vivo; cited from earlier work"}, "ischemic hindlimbs [3]": {"test_system": "ischemic hindlimbs", "test": "Laser Doppler perfusion of ischemic hindlimbs with local CPGI2 delivery by osmotic pump", "format": "in vivo, mice", "settings": "local delivery to ischemic thigh muscle, n=5/group", "method": "Serial measurements of perfusion were performed with the use of a laser Doppler image device (Perimed AB, […]) at 24 hours and 3, 5, 7, and 14 days after cell injections in the cell-treated groups and at the same time points in iloprost-treated mice. Perfusion was expressed as the perfusion ratio in the ischemic compared to the contralateral, non-manipulated leg. The outcomes of local delivery of CPGI2, a prostacyclin analogue, to ischemic hindlimbs were investigated. More specifically, blood perfusion in ischemic hindlimbs was monitored in conjunction with CPGI2 treatment. An osmotic pump was implanted and a catheter was used to deliver the prostacyclin analogue CPGI2 or saline (vehicle) to the surface of the ischemic anterior thigh muscle for up to 14 days."}, "ischemic hindlimbs [4]": {"test_system": "ischemic hindlimbs", "test": "Live microscopy / quantitative confocal analysis of arteriolar growth in ischemic hindlimbs", "format": "in vivo, mice", "settings": "ischemic legs", "excerpt": "The outcomes of local delivery of CPGI2, a prostacyclin analogue, to ischemic hindlimbs were investigated. More specifically, arteriolar growth in ischemic hindlimbs was monitored in conjunction with CPGI2 treatment. Dynamic changes in the microvascular morphology of the limb region distal to the ligation where CPGI2 was applied were microscopically examined in live mice. At 7 days after treatment, structural remodeling at the arteriolar level in the CPGI2 group was more distinct than in the saline group, as shown in FIG. 3. […] More intra-arteriolar connections (solid line arrows, as shown in FIG. 3) and corkscrew extensions of arterioles (dashed line arrows, as shown in FIG. 3) developed in CPGI2-treated versus saline-treated groups. Arteriolar networks were identified by their branching out from a large feeder femoral artery or from a saphenous branch of descending genicular artery."}, "ischemic hindlimbs [5]": {"test_system": "ischemic hindlimbs", "test": "Quantitative micro-CT of microvascular network in ischemic hindlimbs", "format": "in vivo, mice", "excerpt": "The outcomes of local delivery of CPGI2, a prostacyclin analogue, to ischemic hindlimbs were investigated. More specifically, remodeling of microvascular network in ischemic hindlimbs was monitored in conjunction with CPGI2 treatment. High-definition, volumetric, quantitative micro-CT was used to assess the overall microvascular geometry of ischemic and contralateral non-ischemic legs 14 days after femoral occlusion and constant local administration of CPGI2 or saline. […] Similar global morphometric analyses were used to evaluate contralateral non-ischemic legs. […] To further verify the pro-arteriogenic effect of CPGI2, a quantitative histogram was generated by using micro-CT to illustrate frequency and distribution of blood vessel size in CPGI2-treated legs in comparison to saline-treated or contralateral non-ischemic legs. […] Referring to FIG. 4B, the red dashed circles show more vasculature in the thigh muscle where CPGI2 was administered as compared to the similar area where saline was administered. […] CPGI2 treatment positively affects remodeling of the microvascular network in ischemic hindlimbs. Quantitative micro-CT analyses indicate CPGI2 augments vascular growth."}}, "data": [{"smiles": "Cc1cc(SCc2sc(-c3ccc(C(F)(F)F)cc3)nc2C)ccc1OCC(=O)O", "note": "[GW501516]", "values": [{"measurement": "bioluminescent intensity (hMSC retention) versus no drug treatment", "setting": "[1]; intra peritoneal 5 mg/kg/day", "value": "markedly higher"}]}, {"smiles": "CCCCC[C@H](O)/C=C/[C@@H]1[C@H]2C/C(=C/CCCC(=O)O)O[C@H]2C[C@H]1O", "note": "[PGI2, prostacyclin]", "values": [{"measurement": "circulating half-life", "setting": "[2]", "value": "1 to 2", "unit": "min"}]}, {"smiles": "CCCCC[C@H](O)/C=C/[C@@H]1[C@H]2C/C(=C/CCCC(=O)O)C[C@H]2C[C@H]1O", "note": "[CPGI2, Carbaprostacyclin]", "values": [{"measurement": "blood flow recovery", "setting": "ischemic hindlimbs [3]; 7 days, perfusion ischemic vs contralateral leg", "value": "58.80±5.74", "unit": "%"}, {"measurement": "blood flow recovery", "setting": "ischemic hindlimbs [3]; 14 days", "value": "88.40±8.71", "unit": "%"}, {"measurement": "structural remodeling at the arteriolar level versus saline group", "setting": "ischemic hindlimbs [4]; 7 days after treatment", "value": "more distinct"}, {"measurement": "number of microvessels ranging in size from 15-50 m in diameter", "setting": "ischemic hindlimbs [4]; quantitative confocal analysis", "value": "38.00±2.41 /high-power field [HPF]"}, {"measurement": "distance between vessels", "setting": "ischemic hindlimbs [5]; ischemic legs, 14 days", "value": "6.60±0.52", "unit": "mm"}, {"measurement": "vascular volume", "setting": "ischemic hindlimbs [5]; ischemic legs, 14 days after femoral occlusion, constant local administration", "value": "41.28±2.22", "unit": "mm^3"}, {"measurement": "small vessels, vessel diameter bins 40-60 μm, relative to saline-treated ischemic legs", "setting": "ischemic hindlimbs [5]; micro-CT histogram, ischemic legs", "value": "significant increase"}, {"measurement": "morphologic variables of contralateral non-ischemic legs versus saline-treated", "setting": "ischemic hindlimbs [5]; non-ischemic legs, 14 days", "value": "No significant differences"}]}, {"smiles": "CCC#CC[C@H](C)[C@H](O)C#C[C@@H]1[C@H]2C/C(=C/COCC(=O)O)C[C@H]2C[C@H]1O", "note": "[Cicaprost]", "values": [{"measurement": "bioluminescent intensity (hMSC retention) versus no drug treatment", "setting": "[1]; oral gavage daily 0.3 or 1 mg/kg/day", "value": "markedly higher"}]}]}
